Experimental data published in PMC12514245, “Impaired migration and lung invasion of human melanoma by a novel small molecule targeting the transmembrane domain of death receptor p75^NTR” (EMBO Molecular Medicine, 2025).
Several values for one entry are separate records, joined by “and”; a condition that tells them apart may be missing. Identical values can stand only once.

Tests used:
[1] = type: in vivo; conditions: oral gavage 200 mg/kg daily (5 days on, 2 days off), 3 weeks; female SCID
WM115 cells = experiment: Boyden chamber chemotaxis assay, WM115; type: cell-based, human; conditions: for values normalized to vehicle, mean (Figure 6E): mean of EXP1-3; for values normalized to vehicle (Figure 6E): single experiments EXP1-3
Description: For Boyden chamber assay, Corning® BioCoat™ Matrigel® Invasion Chambers 8.0 µm PET Membrane were used (cat. no. 354480). A875 NT or WM115 cells were serum-starved for 16 h and then seeded at 60,000 cells per well in serum-free media under different conditions, including DMSO (vehicle) or small molecules Div17E5 or Np75-4A22 at different concentrations to the top chamber of the Matrigel-coated trans-well chamber. The pan-caspase inhibitor Q_VD_poH (at 5 µM) was also introduced in the top chamber in some experiments. Two different chemoattractants, NGF (at 50 ng/ml or 100 ng/ml as indicated) or 10% FBS were added to the bottom chamber. Assays were carried out for 8 h after which filters were fixed in 4% PFA and stained with DAPI. Cells that had remained on the top of the filter were gently scrapped away with a cotton tip. The filter lower side was imaged on an inverted fluorescence microscope and counted using ImageJ software (NIH).

p75^NTR TMD = p75^NTR TMD (Homo sapiens, UniProt P08138); experiment: 2D NMR (1H-15N TROSY-HSQC) chemical shift perturbation, p75NTR TMD in bicelles; conditions: 4 molar excess compound
Sequence of p75^NTR TMD (P08138 240-274 limits assumed): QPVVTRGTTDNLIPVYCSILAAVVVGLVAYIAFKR

SMILES: Cc1cccc(-c2cncc(Nc3ccc(Br)c(Cl)c3Cl)n2)c1C [Np75-4A22]
- mortality, clinical signs and gross histological pathology [1]: No mortality or adverse clinical signs
- values normalized to vehicle, mean (Figure 6E) (WM115 cells; 100 ng/ml NGF & 1 uM 4A22): 1.0063
- values normalized to vehicle (Figure 6E) (WM115 cells; 100 ng/ml NGF & 1 uM 4A22): 0.9175 and 0.9379 and 1.163
- spontaneous migration of WM115 cells (WM115 cells; 1μM): without affecting the spontaneous migration
- values normalized to vehicle, mean (Figure 6E) (WM115 cells; 1 uM 4A22): 0.8431
- values normalized to vehicle (Figure 6E) (WM115 cells; 1 uM 4A22): 0.9343 and 0.8878 and 0.7073
- NGF-induced migration of WM115 cells (WM115 cells; 1 μM, NGF 100 ng/ml): blocked this activity
- chemical shift perturbations, p75NTR TMD (p75^NTR TMD): Significant chemical shifts
